From patent US8080659B2, “CXCR4 antagonists including diazine and triazine structures for the treatment of medical disorders” (Emory University, priority 2006, dated 2011)

Columns and labels:
[1] = test system: CXCR4; experiment: CXCR4 protein levels after treatment of cells; format: cell-based, human
[2] = test system: MDA-MB-231 cells; experiment: matrigel invasion assay, CXCR4/SDF-1-mediated invasion; format: cell-based, human; conditions: 2 nM
Procedure: Lowering CXCR4 mRNA levels by siRNAs inhibited CXCR4/SDF-1-mediated invasion as measured by a matrigel invasion assay. The CXCR4 ligand, SDF-1 (400 ng/ml) was added to the lower chamber to attract CXCR4-positive breast cancer cells to migrate through the matrigel. The invasion of MDA-MB-231 cells transfected with siRNA1 decreased to 39±4% of the control cells, 51±8% with siRNA2, and only 16±6% with both siRNA1+2 (FIG. 3A).
(§1) WZZL811S was tested in a matrigel invasion assay to determine whether it can inhibit CXCR4/SDF-1-mediated invasion.

[3] = test system: 686LN cells; experiment: Head & Neck cancer metastasis model, 686LN cells i.v., FDG-PET; format: in vivo, mice; conditions: 20 mg/mouse/twice weekly, thirty days
Procedure: The metastatic 686LN cells were injected intravenously through the tail vein to generate experimental animal models for Head & Neck cancer metastasis, modulated via CXCR4. […] These 3-D projection images show lung metastases well (bone mets and liver mets were apparent in axial section images of mice in control groups, data not shown).

[4] = test system: human umbilical vein endothelial cells (HUVECs); experiment: endothelial capillary tube formation assay; format: cell-based; conditions: 100 nM; SDF-1 100 ng/ml; 18 hours
Procedure: The anti-angiogenic effect of test compounds was measured by analyzing endothelial cell growth and tube formation. The angiogenic effect of SDF-1 (100 ng/ml) on capillary formation by human umbilical vein endothelial cells (HUVECs) was examined in vitro using Matrigel-coated 24-well plates precoated with Matrigel and incubated for 18 hours. The angiogenic effect of SDF-1 was inhibited by either 100 nM TN14003 (peptide-based CXCR4 antagonist) or WZZL811S treatment (FIG. 14a, graph FIG. 14b).

[5] = test system: HIV; conditions: MT-4 cells; read-out: concentration required for 50% protection of HIV-induced cytopathogenicity; cited from earlier work
[6] = test system: MT-4 cells; conditions: cited from earlier work
[7] = target: T1, CXCR4 (Homo sapiens, UniProt P61073); experiment: SDF-1-stimulated Akt phosphorylation in MDA-MB-231 cells (western blot); format: cell-based; parameters: endogenous in cells; host or cells: MDA-MB-231; conditions: for concentration blocking Akt activation: 100 ng/ml SDF-1, 30 minutes; for block of SDF-1-stimulated phosphorylation of Akt: MDA-MB-231 cells, 100 ng/ml SDF-1, 30 min, dose-dependent
T1 sequence (P61073 whole entry): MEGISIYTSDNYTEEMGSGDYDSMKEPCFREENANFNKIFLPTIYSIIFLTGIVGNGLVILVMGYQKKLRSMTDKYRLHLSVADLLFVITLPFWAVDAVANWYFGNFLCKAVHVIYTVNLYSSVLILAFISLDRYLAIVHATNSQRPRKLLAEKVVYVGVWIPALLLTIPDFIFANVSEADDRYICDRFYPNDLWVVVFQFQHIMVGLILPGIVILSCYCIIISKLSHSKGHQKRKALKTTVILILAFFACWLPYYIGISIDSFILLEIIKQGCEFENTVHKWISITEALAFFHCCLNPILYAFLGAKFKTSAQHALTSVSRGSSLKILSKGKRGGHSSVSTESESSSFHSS
Procedure: FIG. 2 is an image of a western blot showing phosphorylation of Akt. Incubating MDA-MB-231 cells with 100 ng/ml of SDF-1 for 30 min stimulated phosphorylation of Akt. This activation was blocked with TN14003 or AMD3100 in a dose-dependent manner.
CXCR4/SDF-1 interaction activates PI3K/Akt and Ras/Raf/MEK/Erk pathways in a Gαi protein (PTX-sensitive)-dependent manner. Experiments were conducted to determine the effect of blocking CXCR4/SDF-1 interaction by either TN14003 or AMD3100 at different concentrations (0, 0.01, 0.1, 1, 10, 100, 1000 nM) on phosphorylations of Akt and Erk1/2 signaling. Incubating cells with 100 ng/ml of SDF-1 for 30 minutes activated Akt. […] However, the increase in Erk1/2 phosphorylation by SDF-1 was not significant as the increase in Akt phosphorylation.
as §1

[8] = target: T1, CXCR4; experiment: SDF-1-stimulated Erk1/2 phosphorylation; format: cell-based; parameters: endogenous in cells; host or cells: MDA-MB-231; conditions: data not shown
Procedure: CXCR4/SDF-1 interaction activates PI3K/Akt and Ras/Raf/MEK/Erk pathways in a Gαi protein (PTX-sensitive)-dependent manner. Experiments were conducted to determine the effect of blocking CXCR4/SDF-1 interaction by either TN14003 or AMD3100 at different concentrations (0, 0.01, 0.1, 1, 10, 100, 1000 nM) on phosphorylations of Akt and Erk1/2 signaling.

[9] = clinical trials; cited from earlier work
[10] = target: T1, CXCR4; experiment: competition assay using biotin-labeled TN14003 on tumor cells; format: binding; parameters: endogenous in cells; probably MDA-MB-231
From the text: In a separate embodiment, a process for screening potential drug candidates is provided. The process includes providing a labeled peptide-based CXCR4 antagonist that has a detectable signal when bound to a CXCR4 receptor; contacting a CXCR4 receptor with at least one test molecule at a known concentration to form a test sample; contacting the test sample with the peptide-based antagonist; separately, contacting the peptide-based antagonist to a sample not including any test molecule to form a control sample; and comparing the signal from the test sample to the signal from the control sample. In a specific sub-embodiment, the peptide-based antagonist is derived from TN14003 (described in PCT Publication No. WO 04/087068 to Emory University). In a further subembodiment, the antagonist is labeled with a biotin molecule and the signal is elicited when the biotin-labeled antagonist is contacted with a streptavadin-conjugated signal molecule.
The signal elicited by binding of the CXCR4 antagonist and the receptor can be a fluorescent signal. […]
The peptide-based antagonist is typically a molecule with high affinity for the receptor. […] In this embodiment, the test compound is incubated with the receptor at varying concentrations and the signal elicited after binding of the labeled antagonist is measured and compared to control, as well as to each other. […]

[11] = test system: hypoxia-responsive element (HRE) of VEGF promoter; experiment: HRE-luciferase reporter of VEGF promoter activity in HRE-Luc MB-231 cells; format: cell-based, human
From the text: To determine whether lowering CXCR4 levels might affect VEGF transcription compared to HIF-1α the hypoxia-reporting luciferase/LacZ plasmid from Dr. Van Meir's laboratory was used as a reporter system to detect hypoxia-responsive element (HRE) of VEGF promoter activity (Post, D. E. and Van Meir, E. G. (2001) Gene Ther 8: 1801-1807). The sequence of HIF-1α siRNA was 5′-UUCAAGUUGGAAUUGGUAGdTdT-3′ (SEQ. ID No. 3). Pooled cell clones were created with MDA-MB-231 cells stably transfected with this plasmid (called HRE-Luc MB-231). Unexpectedly, HRE activity in normoxia was moderately high in MDA-MB-231 cells that have high CXCR4 levels in normoxia (FIG. 6, left), which was not observed in other cell lines with low CXCR4 and HIF-1 levels (LN229, U87, 9L, and MDA-MB-435). This moderately high HRE activity in MDA-MB-231 cells was suppressed by CXCR4 siRNA or HIF-1α siRNA. […] As expected, the HRE activity increased 2.5-fold by hypoxia treatment (1% oxygen and 5% CO2 in nitrogen). This elevated HRE activity was again suppressed by siRNA for CXCR4 or HIF-1α (FIG. 6, right).

Compound	effect on CXCR4 protein levels [1]	block of CXCR4/SDF-1 mediated invasion [2]	metastasis to organs [3]	angiogenic effect of SDF-1 on capillary tube formation [4]	EC50 [5] [nM]	concentration leading to 50% toxicity [6] [µM]	concentration blocking Akt activation [7]	block of SDF-1-stimulated phosphorylation of Akt [7]	concentration attenuating Erk1/2 phosphorylation [8]	side effect in clinical study [9]	concentration needed to compete against biotin-labeled TN14003 [10] [µM]	HRE activity ([11]; hypoxia (1% oxygen))	HRE activity ([11]; normoxia)
TN14003	did not affect	blocked	failed to metastasize to any organs	inhibited	0.6	410	sub-nano molar	blocked	sub-nano molar				
C1=CC(CN2CCCNCCNCCCNCC2)CC=C1CN1CCCNCCNCCCNCC1 (centres unmarked) [AMD3100]	did not affect						a few nano molar	blocked	100 nM	cardiac-related side effect	10		
HIF-1α siRNA: HIF-1α siRNA, 5′-UUCAAGUUGGAAUUGGUAGdTdT-3′ (SEQ. ID No. 3) (guide UUCAAGUUGGAAUUGGUAGNN; further chemistry not given here)												suppressed	suppressed
